According to US8853452B2, “Compounds, their syntheses, compositions, and methods to treat cancer” (The Administrators of the Tulane Educational Fund, priority 2009, dated 2014):

Each molecule was assayed on MCF-7TN-R cells (assay: Viability assay using MTT). Conditions: Homo sapiens, 24 h, compounds 0.1 to 100 μM, unit inferred, read-out: MCF-7TN-R (IC50), Viability Assays.
Type: cell-based
Procedure: (§1) Human cancer cell lines derived from breast, MCF-7, endocrine-resistant MDA-MB-231, and chemoresistant MCF-7TN-R were cultured in 75 cm^2 culture flasks in DMEM (Invitrogen, Co.) supplemented with 10% FBS (Life Technologies, Inc., Gaithersburg, Md.), basic minimum MEM essential (50×, Invitrogen Co.) and MEM non-essential (100×, Invitrogen, Co.) amino acids, sodium pyruvate (100× Invitrogen Co.), antimicotic-antibiotic (10,000 U/mL penicillin G sodium; 10,000 μg/mL streptomycin sulphate; 25 μg/mL amphotericin B as Fungizone®), and human recombinant insulin (4 mg/mL Invitrogen Co). Culture flasks were maintained in a tissue culture incubator in a humidified atmosphere of 5% CO2 and 95% air at 37° C.
(§2) The effect of ceramide and compounds on cell growth was determined using MTT viability assays. MCF-7, MDA-MB-231, or MCF-7TN-R cells were plated at […] cells per well in a 96-well plate in phenol-free DMEM supplemented with 5% FBS and allowed to adhere overnight. Cells were then treated with compounds I-1, I-2, I-3, or I-4 (ranging from 0.1 to 100 μM) for 24 h. Following that treatment, 20 μL of MTT (5 mg/ml) reagent was added to each well prior to incubation for 4 hr. Cells were then lysed with 20% SDS in 50% dimethylformamide. The pH and absorbances were read on an EL×808 Microtek plate reader (Winooski, Vt.) at 550 nm, with a reference wavelength of 630 nm.
(§3) Statistical analysis of IC50 values were calculated from concentration-response curves using GraphPad Prism 5.0 (Graphpad Software, San Diego, Calif.), using with the equation: Y=Bottom+(Top−bottom)/1+10 Log EC50−X assuming a standard slope, where the response goes from 10% to 90% of maximal as X increases over two log units. Differences in IC50 were compared using Student's unpaired t-test with p<0.05 as the limit of statistical significance. Experiments comparing multiple concentrations to the control were tested with one-way ANOVA with Bonferroni post-test to compare individual concentrations. All statistical analysis were done using GraphPad Prism 5.0. […].

Compound	IC50 [µM]
CCCCCCCCCCCCC/C=C/[C@@H](O)[C@H](CO)NCc1ccccc1 [Compound I-2, (2S,3R,E)-2-(benzylamino)octadec-4-ene-1,3-diol]	3
CCCCCCCCCCCCC/C=C/[C@@H](O)[C@H](CO)/N=C/c1ccccc1 [Compound I-3, (2S,3R,E)-2-((E)-benzylideneamino)octadec-4-ene-1,3-diol]	3.6
CCCCCCCCCCCCC/C=C/[C@@H](O)[C@H](CO)NC(=O)C(C)(C)C [Compound I-4, N-((2S,3R,E)-1,3-dihydroxyoctadec-4-en-2-yl)pivalamide]	4.2
CCCCCCCCCCCCC/C=C/[C@@H](O)[C@H](CO)NC(=O)C1CCCCC1 [Compound I-1, N-((2S,3R,E)-1,3-dihydroxyoctadec-4-en-2-yl)cyclohexanecarboxamide]	2.4

Each molecule was assayed on MDA-MB-231 cells (assay: Viability assay using MTT). Conditions: Homo sapiens, 24 h, compounds 0.1 to 100 μM, unit inferred, read-out: MDA-MB-231 (IC50), Viability Assays.
Type: cell-based
Procedure: as §1, §2, §3

Compound	IC50 [µM]
CCCCCCCCCCCCC/C=C/[C@@H](O)[C@H](CO)NCc1ccccc1 [Compound I-2, (2S,3R,E)-2-(benzylamino)octadec-4-ene-1,3-diol]	3.7
CCCCCCCCCCCCC/C=C/[C@@H](O)[C@H](CO)/N=C/c1ccccc1 [Compound I-3, (2S,3R,E)-2-((E)-benzylideneamino)octadec-4-ene-1,3-diol]	4.8
CCCCCCCCCCCCC/C=C/[C@@H](O)[C@H](CO)NC(=O)C(C)(C)C [Compound I-4, N-((2S,3R,E)-1,3-dihydroxyoctadec-4-en-2-yl)pivalamide]	8
CCCCCCCCCCCCC/C=C/[C@@H](O)[C@H](CO)NC(=O)C1CCCCC1 [Compound I-1, N-((2S,3R,E)-1,3-dihydroxyoctadec-4-en-2-yl)cyclohexanecarboxamide]	5.4

Each molecule was assayed on MCF-7 cells (assay: Viability assay using MTT). Conditions: Homo sapiens, MCF7, 24 h, compounds 0.1 to 100 μM, unit inferred, read-out: MCF-7 (IC50), Viability Assays.
Type: cell-based
Procedure: as §1, §2, §3

Compound	IC50 [µM]
CCCCCCCCCCCCC/C=C/[C@@H](O)[C@H](CO)NCc1ccccc1 [Compound I-2, (2S,3R,E)-2-(benzylamino)octadec-4-ene-1,3-diol]	6.3
CCCCCCCCCCCCC/C=C/[C@@H](O)[C@H](CO)/N=C/c1ccccc1 [Compound I-3, (2S,3R,E)-2-((E)-benzylideneamino)octadec-4-ene-1,3-diol]	9
CCCCCCCCCCCCC/C=C/[C@@H](O)[C@H](CO)NC(=O)C(C)(C)C [Compound I-4, N-((2S,3R,E)-1,3-dihydroxyoctadec-4-en-2-yl)pivalamide]	13.5
CCCCCCCCCCCCC/C=C/[C@@H](O)[C@H](CO)NC(=O)C1CCCCC1 [Compound I-1, N-((2S,3R,E)-1,3-dihydroxyoctadec-4-en-2-yl)cyclohexanecarboxamide]	22.6

The molecules below were run on MCF-7TN-R cells (assay: Clonogenic survival assay). Conditions: Homo sapiens, 240 h, Table 1B; 10 days; read-out: MCF-7TN-R (IC50), Clonogenic Survival Assays.
Type: cell-based, Human
Procedure: as §1
(§4) MCF-7, MDA-MB-231, or MCF-7TN-R cells were plated in 6-well plates at 1000 cells per well. Twenty-four hours later, cells were treated with varying concentrations of the compound and then monitored microscopically for colony growth. Ten days later the cells were fixed with 3% glutaraldehyde. Following fixation for 15 min, the plates were washed and stained with a 0.4% solution of crystal violet in 20% methanol for 30 min, washed with PBS, and air-dried. Colonies of 30 cells were counted as positive. Results are normalized to percent clonogenic survival from untreated control cells. Statistical analysis of IC50 values were calculated from concentration-response curves using GraphPad Prism 5.0 (Graphpad Software, San Diego, Calif.), using with the equation: Y=Bottom+(Top−bottom)/1+10 Log EC50−X.
(§5) Compounds II-1, II-2, II-3, II-4, II-5, and II-6 were compared for their inhibitory effect on breast cancer clonogenic survival. Cells were treated with varying concentration of compound, ranging from 0.1 μM-20 μM for 10 days. […] At endpoint, cell colonies were fixed, stained and recorded as percent vehicle control.

Compound	IC50 [µM]
CCCCCCCCCCCCC/C=C/[C@@H](O)[C@H](CO)NCc1ccccc1 [Compound I-2, (2S,3R,E)-2-(benzylamino)octadec-4-ene-1,3-diol]	0.6
CCCCCCCCCCCCC/C=C/[C@@H](O)[C@H](CO)/N=C/c1ccccc1 [Compound I-3, (2S,3R,E)-2-((E)-benzylideneamino)octadec-4-ene-1,3-diol]	0.1
CCCCCCCCCCCCC/C=C/[C@@H](O)[C@H](CO)NC(=O)C(C)(C)C [Compound I-4, N-((2S,3R,E)-1,3-dihydroxyoctadec-4-en-2-yl)pivalamide]	0.6
CCCCCCCCCCCCC/C=C/[C@@H](O)[C@H](CO)NC(=O)C1CCCCC1 [Compound I-1, N-((2S,3R,E)-1,3-dihydroxyoctadec-4-en-2-yl)cyclohexanecarboxamide]	0.7

Same assay, conditions: Homo sapiens, 240 h, Table 2; 0.1 μM-20 μM for 10 days; read-out: MCF-7-TNR (IC50), clonogenic survival

Compound	IC50 [µM]
CCCCCCCCCCCCCCNC(=O)[C@H](CO)NCc1ccccc1 [II-2, (S)-2-(benzylamino)-3-hydroxy-N-tetradecylpropanamide]	15.2
CCCCCCCCCCCCCCNC(=O)[C@H](CO)NC(=O)C1CCCCC1 [II-1, (S)—N-(3-hydroxy-1-oxo-1-(tetradecylamino)propan-2-yl)cyclohexanecarboxamide]	23.5

The molecules below were run on MDA-MB-231 cells (assay: Clonogenic survival assay). Conditions: Homo sapiens, MDA-MB-231, 240 h, Table 1B; 10 days; read-out: MDA-MB-231 (IC50), Clonogenic Survival Assays.
Type: cell-based, Human
Procedure: as §1, §4, §5

Compound	IC50 [µM]
CCCCCCCCCCCCC/C=C/[C@@H](O)[C@H](CO)NCc1ccccc1 [Compound I-2, (2S,3R,E)-2-(benzylamino)octadec-4-ene-1,3-diol]	1.1
CCCCCCCCCCCCC/C=C/[C@@H](O)[C@H](CO)/N=C/c1ccccc1 [Compound I-3, (2S,3R,E)-2-((E)-benzylideneamino)octadec-4-ene-1,3-diol]	1.4
CCCCCCCCCCCCC/C=C/[C@@H](O)[C@H](CO)NC(=O)C(C)(C)C [Compound I-4, N-((2S,3R,E)-1,3-dihydroxyoctadec-4-en-2-yl)pivalamide]	0.5
CCCCCCCCCCCCC/C=C/[C@@H](O)[C@H](CO)NC(=O)C1CCCCC1 [Compound I-1, N-((2S,3R,E)-1,3-dihydroxyoctadec-4-en-2-yl)cyclohexanecarboxamide]	1.6

Same assay, conditions: Homo sapiens, MDA-MB-231, 240 h, Table 2; 0.1 μM-20 μM for 10 days; read-out: MDA-MB-231 (IC50), clonogenic survival

Compound	IC50 [µM]
CCCCCCCCCCCCCCNC(=O)[C@H](CO)NCc1ccccc1 [II-2, (S)-2-(benzylamino)-3-hydroxy-N-tetradecylpropanamide]	10.5
CCCCCCCCCCCCCCNC(=O)[C@H](CO)NC(=O)C1CCCCC1 [II-1, (S)—N-(3-hydroxy-1-oxo-1-(tetradecylamino)propan-2-yl)cyclohexanecarboxamide]	11.5

The molecules below were run on MCF-7 cells (assay: Clonogenic survival assay). Conditions: Homo sapiens, MCF7, 240 h, Table 1B; 10 days; read-out: MCF-7 (IC50), Clonogenic Survival Assays.
Type: cell-based, Human
Procedure: as §1, §4, §5

Compound	IC50 [µM]
CCCCCCCCCCCCC/C=C/[C@@H](O)[C@H](CO)NCc1ccccc1 [Compound I-2, (2S,3R,E)-2-(benzylamino)octadec-4-ene-1,3-diol]	1.5
CCCCCCCCCCCCC/C=C/[C@@H](O)[C@H](CO)/N=C/c1ccccc1 [Compound I-3, (2S,3R,E)-2-((E)-benzylideneamino)octadec-4-ene-1,3-diol]	1.7
CCCCCCCCCCCCC/C=C/[C@@H](O)[C@H](CO)NC(=O)C(C)(C)C [Compound I-4, N-((2S,3R,E)-1,3-dihydroxyoctadec-4-en-2-yl)pivalamide]	1.5
CCCCCCCCCCCCC/C=C/[C@@H](O)[C@H](CO)NC(=O)C1CCCCC1 [Compound I-1, N-((2S,3R,E)-1,3-dihydroxyoctadec-4-en-2-yl)cyclohexanecarboxamide]	1.5

Same assay, conditions: Homo sapiens, MCF7, 240 h, Table 2; 0.1 μM-20 μM for 10 days; read-out: MCF-7 (IC50), clonogenic survival

Compound	IC50 [µM]
CCCCCCCCCCCCCCNC(=O)[C@H](CO)NCc1ccccc1 [II-2, (S)-2-(benzylamino)-3-hydroxy-N-tetradecylpropanamide]	4.97
CCCCCCCCCCCCCCNC(=O)[C@H](CO)NC(=O)C1CCCCC1 [II-1, (S)—N-(3-hydroxy-1-oxo-1-(tetradecylamino)propan-2-yl)cyclohexanecarboxamide]	7.2

Same assay, conditions: Table 2; 0.1 μM-20 μM for 10 days; read-out: MCF-7 (IC50), clonogenic survival

Compound	IC50 [µM]
CCCCCCCCCCCCCCNC(=O)[C@H](CO)NCc1ccccc1 [II-2, (S)-2-(benzylamino)-3-hydroxy-N-tetradecylpropanamide]	5
